Experimental data as given in PubChem BioAssay AID1963846 (Molecular Pharmacology Branch, DTP, NCI, 2024).

System: 454973-116-R2-J3-PDC complex spheroid viability
Experiment: Anticancer human tumor 454973-116-R2-J3-PDC patient-derived pancreatic carcinoma cell line growth inhibition [POLQ]
Conditions: for IC50: curve of first compound; for viability, T/C: stronger effect = lower value
Outline: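 Patient-derived tumour cells were co-cultured with HUVEC and mesenchymal stem cells as multicellular spheroids at 37 °C. They were treated with POLQ inhibitors (novobiocin, ART-558, RP6685) alone or combined with other agents. Top concentrations were at or near clinical Cmax (otherwise 10 microM; SN-38 at 1 microM), decreasing in half-log steps.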
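Note: spheroids exposed to drugs for seven days before measurement.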
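Throughout, for viability, T/C: percent viability relative to DMSO vehicle control wells taken as 100%.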

CC(=O)O[C@H]1C(=O)[C@@]2(C)[C@H]([C@H](OC(=O)c3ccccc3)[C@]3(O)C[C@H](OC(=O)[C@H](O)[C@@H](NC(=O)c4ccccc4)c4ccccc4)C(C)=C1C3(C)C)[C@]1(OC(C)=O)CO[C@@H]1C[C@@H]2O + Nc1ccc(C#CCN(C(=O)Cc2ncc(C(F)(F)F)cc2C(F)(F)F)c2ccc(F)cc2)nn1
IC50 (second compound 0.0316 µM): < 9.49 nM
IC50 (second compound 0.1 µM): < 9.49 nM
IC50 (second compound 0.316 µM): < 9.49 nM
IC50 (second compound 1 µM): < 9.49 nM
IC50 (second compound 3.16 µM): < 9.49 nM
IC50 (second compound 10 µM): < 9.49 nM
viability, T/C (second compound 0.0316 µM, first compound 0.00949 µM): 6.03%
viability, T/C (second compound 0.0316 µM, first compound 0.03 µM): 5.37%
viability, T/C (second compound 0.0316 µM, first compound 0.0949 µM): 4.33%
viability, T/C (second compound 0.0316 µM, first compound 0.3 µM): 4.12%
viability, T/C (second compound 0.0316 µM, first compound 0.949 µM): 5.17%
viability, T/C (second compound 0.0316 µM, first compound 3 µM): 4.92%
viability, T/C (second compound 0.1 µM, first compound 0.00949 µM): 6.43%
viability, T/C (second compound 0.1 µM, first compound 0.03 µM): 5.72%
viability, T/C (second compound 0.1 µM, first compound 0.0949 µM): 5.37%
viability, T/C (second compound 0.1 µM, first compound 0.3 µM): 3.72%
viability, T/C (second compound 0.1 µM, first compound 0.949 µM): 4.36%
viability, T/C (second compound 0.1 µM, first compound 3 µM): 5.13%
viability, T/C (second compound 0.316 µM, first compound 0.00949 µM): 6.26%
viability, T/C (second compound 0.316 µM, first compound 0.03 µM): 5.71%
viability, T/C (second compound 0.316 µM, first compound 0.0949 µM): 3.79%
viability, T/C (second compound 0.316 µM, first compound 0.3 µM): 4.86%
viability, T/C (second compound 0.316 µM, first compound 0.949 µM): 4.32%
viability, T/C (second compound 0.316 µM, first compound 3 µM): 5.03%
viability, T/C (second compound 1 µM, first compound 0.00949 µM): 6.64%
viability, T/C (second compound 1 µM, first compound 0.03 µM): 7.67%
viability, T/C (second compound 1 µM, first compound 0.0949 µM): 5.72%
viability, T/C (second compound 1 µM, first compound 0.3 µM): 4.36%
viability, T/C (second compound 1 µM, first compound 0.949 µM): 4.31%
viability, T/C (second compound 1 µM, first compound 3 µM): 4.88%
viability, T/C (second compound 3.16 µM, first compound 0.00949 µM): 6.84%
viability, T/C (second compound 3.16 µM, first compound 0.03 µM): 4.76%
viability, T/C (second compound 3.16 µM, first compound 0.0949 µM): 4.25%
viability, T/C (second compound 3.16 µM, first compound 0.3 µM): 4.05%
viability, T/C (second compound 3.16 µM, first compound 0.949 µM): 5.59%
viability, T/C (second compound 3.16 µM, first compound 3 µM): 4.37%
viability, T/C (second compound 10 µM, first compound 0.00949 µM): 6.5%
viability, T/C (second compound 10 µM, first compound 0.03 µM): 4.13%
viability, T/C (second compound 10 µM, first compound 0.0949 µM): 4.66%
viability, T/C (second compound 10 µM, first compound 0.3 µM): 4.52%
viability, T/C (second compound 10 µM, first compound 0.949 µM): 4.25%
viability, T/C (second compound 10 µM, first compound 3 µM): 4.89%
